Reference: patent US20040082614A1, “Methods of treating infection using anitbiotics and glycogen phosphorylase inhibitors” (Pfizer Inc., priority 2002, published 2004)
Read-outs that look alike come from different tables or passages of the source.

Columns and labels:
Format in all cases: cell-based
Chlamydia pneumonia [1] = test: Minimum inhibitory concentration (MIC) determination in Hep2 cells infected with Chlamydia pneumonia, inclusion bodies by fluorescent microscopy; conditions: for antibacterial effects of the combination with azithromycin: MIC and MBC
Protocol: (§1) Hep2 cells maintained in Isocove's Modified Dulbecco's Medium (IMDM) were infected with Chlamydia pneumonia (0.5 MOI for two hours after one hour centrifugation). Cells were then treated with Compound A (0, 5, 10, 20, 30 or 40 μg/ml) or Compound B (0, 5, 10, 20, 30 or 40 μg/ml) alone and/or in combination with azithromycin (Pfizer, Inc., New York, N.Y.) 0, 0.005, 0.0158, 0.050, 0.158, or 0.5 μg/ml). For minimum inhibitory concentration (MIC) determination, cells were terminated for analysis at 72 h after the addition of drugs. For minimum bacteriocidal concentration (MBC) determination, drugs were removed at 72 h post-treatment, the media was replaced, and cells were maintained for an additional 72 h before termination. At termination, cells were analyzed for quantitation of inclusion bodies using fluorescent microscopy, and general cell viability by microscopic visualization.

Chlamydia pneumonia [2] = test: Minimum bacteriocidal concentration (MBC) determination in Hep2 cells infected with Chlamydia pneumonia, drugs removed at 72 h, further 72 h; conditions: for reduction of the MBC for azithromycin by the glycogen phosphorylase inhibitor: summary statement, combination with azithromycin
Protocol: as §1

Hep2 cells = test: General cell viability / host cell appearance by microscopic visualization
Protocol: as §1

[3] = Chlamydia, 72 h, drug alone, 72 h after addition of drugs, read-out: MIC
[4] = combined with 5 μg/ml Compound A
[5] = combined with 30 μg/ml Compound B
[6] = Chlamydia, 72 h, drug alone, drugs removed at 72 h, additional 72 h, read-out: MBC

CC[C@H]1OC(=O)[C@H](C)[C@@H](O[C@H]2C[C@@](C)(OC)[C@@H](O)[C@H](C)O2)[C@H](C)[C@@H](O[C@@H]2O[C@H](C)C[C@H](N(C)C)[C@H]2O)[C@](C)(O)C[C@@H](C)CN(C)[C@H](C)[C@@H](O)[C@]1(C)O [Azithromycin, 9a-aza-9a-methyl-9-deoxo-9a-homoerythromycin A]
MIC (Chlamydia pneumonia [1]; [3]): 0.158 µg/mL | MIC (Chlamydia pneumonia [1]; Chlamydia, combined with 5 μg/ml Compound A, read-out: azithromycin concentration required for MIC): 0.05 µg/mL | MIC (Chlamydia pneumonia [1]; Chlamydia, combined with 10 μg/ml Compound A, read-out: azithromycin concentration required for MIC): 0.0158 µg/mL | MIC (Chlamydia pneumonia [1]; Chlamydia, combined with 10 μg/ml Compound B, read-out: azithromycin concentration required for MIC): 0.05 µg/mL | MIC (Chlamydia pneumonia [1]; Chlamydia, combined with 30 μg/ml Compound B, read-out: azithromycin concentration required for MIC): 0.0158 µg/mL | decrease in azithromycin concentration required for MIC (Chlamydia pneumonia [1]; [4]): 3 fold | decrease in azithromycin concentration required for MIC (Chlamydia pneumonia [1]; combined with 10 μg/ml Compound A): 10 fold | decrease in azithromycin concentration required for MIC (Chlamydia pneumonia [1]; combined with 10 μg/ml Compound B): 3 fold | decrease in azithromycin concentration required for MIC (Chlamydia pneumonia [1]; [5]): 10 fold | MBC (Chlamydia pneumonia [2]; [6]): 0.5 µg/mL | MBC (Chlamydia pneumonia [2]; Chlamydia, combined with 5 μg/ml Compound A, read-out: azithromycin concentration required for MBC): 0.158 µg/mL | MBC (Chlamydia pneumonia [2]; Chlamydia, combined with 20 μg/ml Compound A, read-out: azithromycin concentration required for MBC): 0.05 µg/mL | MBC (Chlamydia pneumonia [2]; Chlamydia, combined with 30 μg/ml Compound B, read-out: azithromycin concentration required for MBC): 0.158 µg/mL | decrease in azithromycin concentration required for MBC (Chlamydia pneumonia [2]; [4]): 3 fold | decrease in azithromycin concentration required for MBC (Chlamydia pneumonia [2]; combined with 20 μg/ml Compound A): 10 fold | decrease in azithromycin concentration required for MBC (Chlamydia pneumonia [2]; [5]): 3 fold

O=C(N[C@@H](Cc1ccc(F)cc1)C(=O)N1CCC(O)CC1)c1cc2cc(Cl)ccc2[nH]1 [Compound A, 5-chloro-1H-indole-2-carboxylic acid [(1S)-(4-fluoro-benzyl)-2-(4-hydroxypiperidin-1-yl)-2-oxo-ethyl]-amide]
MIC (Chlamydia pneumonia [1]; [3]): 20 µg/mL | antibacterial effects of the combination with azithromycin (Chlamydia pneumonia [1]): synergy of antibacterial effects | MBC (Chlamydia pneumonia [2]; [6]): 30 µg/mL | reduction of the MBC for azithromycin by the glycogen phosphorylase inhibitor (Chlamydia pneumonia [2]): 3-10 fold | concentrations associated with changes in host cell appearance (Hep2 cells; Hep2 host cells): ≥ 30000 ng/mL

O=C(N[C@@H](Cc1ccccc1)[C@@H](O)C(=O)N1C[C@@H](O)[C@@H](O)C1)c1cc2cc(Cl)ccc2[nH]1 [Compound B]
antibacterial effects of the combination with azithromycin (Chlamydia pneumonia [1]): synergy of antibacterial effects | MIC (Chlamydia pneumonia [1]; drug alone, 72 h after addition of drugs): > 40 µg/mL | MBC (Chlamydia pneumonia [2]; drug alone, drugs removed at 72 h, additional 72 h): > 40 µg/mL | reduction of the MBC for azithromycin by the glycogen phosphorylase inhibitor (Chlamydia pneumonia [2]): 3 fold | changes in host cell appearance (Hep2 cells): not associated with any changes in host cell appearance
